Like-named read-outs stand apart in the source and are kept apart here.
Tests used:
Y. pseudotuberculosis = assay: microbe, parasite or virus in culture; conditions: Yersinia pseudotuberculosis, J774, read-out: % Cytotoxicity
LcrF (VirF) = LcrF (VirF) (Yersinia pestis, UniProt P28808); assay: biochemical; type: binding, Y. pseudotuberculosis
ExsA = target: T1, ExsA (Pseudomonas aeruginosa, UniProt P26993); assay: Chemiluminescence-based ExsA-DNA binding assay; design: species or system P. aeruginosa; conditions: Table 7, cell-free system; read-out: ExsA EC50
T1 construct: made in house
T1 sequence (P26993 1-278): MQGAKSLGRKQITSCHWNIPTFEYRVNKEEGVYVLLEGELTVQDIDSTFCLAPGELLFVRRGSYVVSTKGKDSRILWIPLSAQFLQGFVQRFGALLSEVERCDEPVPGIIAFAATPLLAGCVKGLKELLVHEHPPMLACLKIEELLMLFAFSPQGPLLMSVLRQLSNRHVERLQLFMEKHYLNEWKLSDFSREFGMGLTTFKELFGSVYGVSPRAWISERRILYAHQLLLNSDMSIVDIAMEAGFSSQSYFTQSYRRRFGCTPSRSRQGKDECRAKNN

P. aeruginosa = P. aeruginosa cytotoxicity whole cell assay (J774 cells, LDH release); conditions: relative to vehicle treated cells infected with wild type P. aeruginosa
[1] = EC50 for inhibition of LcrF(VirF)-DNA binding

Chain of LcrF (VirF) (P28808 whole entry, looked up): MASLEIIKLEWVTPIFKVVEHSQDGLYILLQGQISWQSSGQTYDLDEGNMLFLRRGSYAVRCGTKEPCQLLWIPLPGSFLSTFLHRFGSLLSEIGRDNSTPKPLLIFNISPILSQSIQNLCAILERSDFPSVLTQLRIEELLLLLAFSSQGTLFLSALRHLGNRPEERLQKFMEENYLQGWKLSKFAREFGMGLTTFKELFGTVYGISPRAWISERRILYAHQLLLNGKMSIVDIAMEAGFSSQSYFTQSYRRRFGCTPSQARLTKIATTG

Structure (SMILES)	activity at 50 µg/mL (Y. pseudotuberculosis) [%]	EC50 (LcrF (VirF); [1]) [µM]	EC50 (ExsA) [µM]	Cytotoxicity at 50 μg/mL Pseudomonas (P. aeruginosa)	EC50 (LcrF (VirF); read-out: EC50 for inhibition of LcrF(VirF)-DNA binding) [µM]
CN(C)c1cc2nc(-c3ccc(NC(=O)/C=C/c4ccc(F)cc4)cc3)n(O)c2cc1[N+](=O)[O-] [EZ, N-[4-(5-Dimethylamino-1-hydroxy-6-nitro-1H-benzoimidazol-2-yl)-phenyl]-3-(4-fluorocinnamyl)-amide]	75 to 99	> 25	10 to 25	** (reduced P. aeruginosa cytotoxicity below 75% of untreated, wild type levels at 50 mg/mL)	–
CC(=O)c1ccc(C(=O)Nc2ccc(-c3nc4ccc(C#N)cc4n3O)cc2)cc1 [AA]	< 75	> 25	–	** (reduced P. aeruginosa cytotoxicity below 75% of untreated, wild type levels at 50 mg/mL)	–
COc1cc(C(=O)Nc2ccc(-c3nc4ccc([N+](=O)[O-])cc4n3O)cc2)ccc1F [DM]	< 75	10 to 25	10 to 25	* (reduced P. aeruginosa cytotoxicity to 99-75% of untreated, wild type levels at 50 mg/mL)	–
CC(=O)c1ccc(C(=O)Nc2ccc(-c3nc4ncc([N+](=O)[O-])cc4n3O)cc2)cc1 [DJ]	< 75	10 to 25	–	* (reduced P. aeruginosa cytotoxicity to 99-75% of untreated, wild type levels at 50 mg/mL)	–
Cc1ccc(/C=C/C(=O)Nc2ccc(-c3nc4ccc(C#N)cc4n3O)cc2)cc1 [CP]	75 to 99	10 to 25	–	* (reduced P. aeruginosa cytotoxicity to 99-75% of untreated, wild type levels at 50 mg/mL)	–
COc1cc(NC(=O)c2ccc(F)cc2)ccc1-c1nc2ccc([N+](=O)[O-])cc2n1O [DT]	< 75	> 25	10 to 25	* (reduced P. aeruginosa cytotoxicity to 99-75% of untreated, wild type levels at 50 mg/mL)	–
O=C(Nc1ccc(-c2nc3ccc([N+](=O)[O-])cc3n2O)cc1)/C(F)=C/c1ccccc1 [CR]	< 75	10 to 25	–	** (reduced P. aeruginosa cytotoxicity below 75% of untreated, wild type levels at 50 mg/mL)	–
O=C(/C=C/c1ccc(-n2ccnc2)cc1)Nc1ccc(-c2nc3ccc([N+](=O)[O-])cc3n2O)cc1 [AM, (E)-N-[4-(1-Hydroxy-6-nitro-1H-benzoimidazol-2-yl)-phenyl]-3-(4-imidazol-1-yl-phenyl)-acrylamide]	75 to 99	–	–	** (reduced P. aeruginosa cytotoxicity below 75% of untreated, wild type levels at 50 mg/mL)	> 25
O=C(Nc1ccc(-c2nc3ccc([N+](=O)[O-])cc3n2O)cc1)/C(=C/c1ccccc1)c1ccccc1 [CQ]	< 75	–	10 to 25	** (reduced P. aeruginosa cytotoxicity below 75% of untreated, wild type levels at 50 mg/mL)	–
O=C(Nc1ccc(-c2nc3ccc([N+](=O)[O-])cc3n2O)cc1)c1ccccc1O [DN]	< 75	10 to 25	10 to 25	* (reduced P. aeruginosa cytotoxicity to 99-75% of untreated, wild type levels at 50 mg/mL)	–
Cc1cc2nc(-c3ccc(NC(=O)c4ccc(-c5cnco5)cc4)cc3)n(O)c2cc1[N+](=O)[O-] [EX, N-[4-(1-Hydroxy-5-methyl-6-nitro-1H-benzoimidazol-2-yl)-phenyl]-4-oxazol-5-v-benzamide]	75 to 99	> 25	–	** (reduced P. aeruginosa cytotoxicity below 75% of untreated, wild type levels at 50 mg/mL)	–
O=C(Nc1ccc(-c2nc3ncc([N+](=O)[O-])cc3n2O)cc1)c1ccc(F)cc1 [DI]	< 75	10 to 25	10 to 25	* (reduced P. aeruginosa cytotoxicity to 99-75% of untreated, wild type levels at 50 mg/mL)	–
O=C(/C=C/c1ccc(-n2cncn2)cc1)Nc1ccc(-c2nc3ccc([N+](=O)[O-])cc3n2O)cc1 [EU, (E)-N-[4-(1-Hydroxy-6-nitro-1H-benzoimidazol-2-yl)-phenyl]-3-(4-[1,2,4]triazol-1-yl-phenyl)-acrylamide]	75 to 99	> 25	–	** (reduced P. aeruginosa cytotoxicity below 75% of untreated, wild type levels at 50 mg/mL)	–
CCOP(=O)(COn1c(-c2ccc(NC(=O)/C=C/c3ccc(F)cc3)cc2)nc2ccc([N+](=O)[O-])cc21)OCC [ED, (2-{4-[(E)-3-(4-Fluoro-phenyl)-acrloylamino]-phenyl}-6-nitro-benzoimidazol-1-yloxymethyl)-phosphonic acid diethyl ester]	< 75	> 25	< 10	* (reduced P. aeruginosa cytotoxicity to 99-75% of untreated, wild type levels at 50 mg/mL)	–
COc1ccc(/C=C/C(=O)Nc2ccc(-c3nc4ccc([N+](=O)[O-])cc4n3O)cc2)c(OC)c1 [AK]	75 to 99	> 25	–	* (reduced P. aeruginosa cytotoxicity to 99-75% of untreated, wild type levels at 50 mg/mL)	–
N#Cc1ccc2nc(-c3ccc(NC(=O)/C=C/c4ccccc4)cc3)n(O)c2c1 [CL]	< 75	10 to 25	10 to 25	* (reduced P. aeruginosa cytotoxicity to 99-75% of untreated, wild type levels at 50 mg/mL)	–
CN(C)C(=O)c1ccc(C(=O)Nc2ccc(-c3nc4ccc([N+](=O)[O-])cc4n3O)cc2)cc1 [FB]	< 75	–	> 25	* (reduced P. aeruginosa cytotoxicity to 99-75% of untreated, wild type levels at 50 mg/mL)	–
O=C(C/C=C/c1ccccc1)Nc1ccc(-c2nc3ccc([N+](=O)[O-])cc3n2O)cc1 [CY]	< 75	> 25	–	* (reduced P. aeruginosa cytotoxicity to 99-75% of untreated, wild type levels at 50 mg/mL)	–
CC(=O)c1ccc(C(=O)Nc2ccc(-c3nc4ccc([N+](=O)[O-])cc4n3O)cc2F)cc1 [EM, 4-Acetyl-N-[2-fluoro-4-(1-hydroxy-6-nitro-H-benzoimidazol-2-yl)-phenyl]-benzamide]	< 75	10 to 25	–	* (reduced P. aeruginosa cytotoxicity to 99-75% of untreated, wild type levels at 50 mg/mL)	–
O=C(/C=C/c1ccc(F)cc1)Nc1ccc(-c2nc3ccc([N+](=O)[O-])cc3n2O)nc1 [DZ]	< 75	10 to 25	–	* (reduced P. aeruginosa cytotoxicity to 99-75% of untreated, wild type levels at 50 mg/mL)	–
O=C(/C=C/c1ccc(F)cc1)Nc1ccc(-c2nc3ccc([N+](=O)[O-])cc3n2O)c(F)c1 [EI]	75 to 99	–	10 to 25	* (reduced P. aeruginosa cytotoxicity to 99-75% of untreated, wild type levels at 50 mg/mL)	–
CCOc1cc2nc(-c3ccc(NC(=O)/C=C/c4ccc(F)cc4)cc3)n(O)c2cc1[N+](=O)[O-] [EV, (E)-N-[4-(5-Ethoxy-1-hydroxy-6-nitro-1H-benzoimidazol-2-yl)-phenyl]-3-(4-fluoro-phenyl)-acrylamide]	75 to 99	10 to 25	–	** (reduced P. aeruginosa cytotoxicity below 75% of untreated, wild type levels at 50 mg/mL)	–
